In US10975037B2 (priority 2018, dated 2021):
Counter-ions that a name gives are not always drawn.

These compounds were tested against full-length human RORγt (Homo sapiens (Human), UniProt P51449) (assay: RORγt (full-length human) reporter assay, conditions A or B, HEK293T cells). Details: HEK-293T, read-out: RORγt (FL) Reporter Assay A or B, % inhibition.
Assay type: cell-based
Method: RORγt (Full-Length Human) Reporter Assay:
(§1) HEK293T cells were plated at 35,000 per well in 96-well plate in medium of DMEM with 10% FBS. […] After overnight (16 to 20 hours) incubation, media were removed and cells were lysed with 50 L Glo Lysis Buffer (Promega) for 10-15 minutes followed by 10 minute incubation with 50 μL Dual Glo reagent (Promega) at room temperature. Firefly luciferase luminescence was measured using a BMG Pherastar plate reader. To each well, 50 μL Stop and Glo reagent was added and incubated for 10 minutes at room temperature. Renilla luminescence was measured using a BMG Pherastar plate reader. To calculate the effect of compounds on RORγt activity, firefly values were normalized against values of DMSO only and values of reference compound at saturating concentration, then further normalized against Renilla signals. IC50s were generated by plotting final Renilla normalized data against compound concentration and percent inhibition was calculated against DMSO control.
as §1, with “at 8750 cells” for “at 35,000”, “in 384-well” for “in 96-well”, “with 20” for “with 50”, “well, 20” for “well, 50”

Sequence of full-length human RORγt (P51449 other isoform, or with tags, fused parts or gaps): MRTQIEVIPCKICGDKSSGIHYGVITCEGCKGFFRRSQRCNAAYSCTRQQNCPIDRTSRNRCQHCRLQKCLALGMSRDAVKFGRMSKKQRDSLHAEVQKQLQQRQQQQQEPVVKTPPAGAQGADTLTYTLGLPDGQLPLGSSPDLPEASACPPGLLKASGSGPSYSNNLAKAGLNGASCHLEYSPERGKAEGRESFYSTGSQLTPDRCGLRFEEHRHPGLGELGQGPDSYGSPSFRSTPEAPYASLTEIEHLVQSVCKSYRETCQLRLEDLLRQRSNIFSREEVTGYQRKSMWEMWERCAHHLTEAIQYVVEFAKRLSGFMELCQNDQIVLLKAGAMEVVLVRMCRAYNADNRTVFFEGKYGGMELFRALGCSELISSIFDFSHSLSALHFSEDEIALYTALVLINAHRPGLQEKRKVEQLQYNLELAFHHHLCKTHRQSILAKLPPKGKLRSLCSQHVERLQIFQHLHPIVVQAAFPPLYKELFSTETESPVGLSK

Structure (SMILES)	inhibition at 3 µM [%]
CCn1nc(C(=O)NC[C@]2(O)CC[C@@H](S(C)(=O)=O)CC2)c(Cl)c1-c1ccc(C(O)C2(C(F)(F)F)CC2)cc1OC(F)F (some centres unmarked) [Example 109, 4-Chloro-5-(2-(difluoromethoxy)-4-(hydroxy(1-(trifluoromethyl)cyclopropyl)methyl)phenyl)-1-ethyl-N-(((1s,4s)-1-hydroxy-4-(methylsulfonyl)cyclohexyl)methyl)-1H-pyrazole-3-carboxamide]	88
CCn1nc(C(=O)NC[C@]2(O)CC[C@@H](S(C)(=O)=O)CC2)c(Cl)c1-c1ccc([C@H](O)C(C)(C)C(F)(F)F)cc1OC(F)F (single isomer, unassigned) [Example 107, 4-Chloro-5-(2-(difluoromethoxy)-4-((S*)-3,3,3-trifluoro-1-hydroxy-2,2-dimethylpropyl)phenyl)-1-ethyl-N-(((1s,4R)-1-hydroxy-4-(methylsulfonyl)cyclohexyl)methyl)-1H-pyrazole-3-carboxamide]	104

Same assay, conditions: HEK-293T; 0.67 μM compound concentration (footnote ****); read-out: RORγt (FL) Reporter Assay A or B, % inhibition

Structure (SMILES)	inhibition at 0.67 µM [%]
CCn1nc(C(=O)NC[C@]2(O)CC[C@@H](S(C)(=O)=O)CC2)c(Cl)c1-c1ccc(C[C@H](C)C(F)(F)F)cc1OC (single isomer, unassigned) [Example 37, 4-Chloro-1-ethyl-N-(((1s,4R)-1-hydroxy-4-(methylsulfonyl)cyclohexyl)methyl)-5-(2-methoxy-4-((S*)-3,3,3-trifluoro-2-methylpropyl)phenyl)-1H-pyrazole-3-carboxamide]	97
[2H]C([2H])([2H])Oc1cc(CC(C)(C)C(F)(F)F)ccc1-c1c(Cl)c(C(=O)NC[C@H]2CC[C@H](S(C)(=O)=O)CC2)nn1CC [Example 193, 4-Chloro-1-ethyl-5-(2-(methoxy-d3)-4-(3,3,3-trifluoro-2,2-dimethylpropyl)phenyl)-N-(((1r,4r)-4-(methylsulfonyl)cyclohexyl)methyl)-1H-pyrazole-3-carboxamide]	93

Same assay, conditions: HEK-293T; 1 μM compound concentration (footnote ***); read-out: RORγt (FL) Reporter Assay A or B, % inhibition

Structure (SMILES)	inhibition at 1 µM [%]
CCn1nc(C(=O)NC[C@]2(O)CC[C@@H](S(C)(=O)=O)CC2)c(Cl)c1-c1ccc([C@@H](O)C2(C(F)(F)F)CC2)cc1OC(F)F (single isomer, unassigned) [Example 111, 4-Chloro-5-(2-(difluoromethoxy)-4-((R*)-hydroxy(1-(trifluoromethyl)cyclopropyl)methyl)phenyl)-1-ethyl-N-(((1s,4S)-1-hydroxy-4-(methylsulfonyl)cyclohexyl)methyl)-1H-pyrazole-3-carboxamide]	95
CCn1nc(C(=O)NC[C@]2(O)CC[C@@H](S(C)(=O)=O)CC2)c(Cl)c1-c1ccc([C@H](O)C2(C(F)(F)F)CC2)cc1OC(F)F (single isomer, unassigned) [Example 110, 4-Chloro-5-(2-(difluoromethoxy)-4-((S*)-hydroxy(1-(trifluoromethyl)cyclopropyl)methyl)phenyl)-1-ethyl-N-(((1s,4R)-1-hydroxy-4-(methylsulfonyl)cyclohexyl)methyl)-1H-pyrazole-3-carboxamide]	75

Same assay, conditions: HEK-293T; 2 μM compound concentration; read-out: RORγt (FL) Reporter Assay A or B, % inhibition

Structure (SMILES)	inhibition at 2 µM [%]
CCn1nc(C(=O)NC[C@]2(O)CC[C@@H](S(C)(=O)=O)CC2)c(Cl)c1-c1ccc(C[C@@H](C)C(F)(F)F)cc1OC [Example 36, 4-Chloro-1-ethyl-N-(((1s,4S)-1-hydroxy-4-(methylsulfonyl)cyclohexyl)methyl)-5-(2-methoxy-4-((R)-3,3,3-trifluoro-2-methylpropyl)phenyl)-1H-pyrazole-3-carboxamide]	101
CCOC(=O)[C@]1(CNC(=O)c2nn(CC)c(-c3ccc(CC(C)(C)C(F)(F)F)cc3OC(F)F)c2Cl)CC[C@H](S(C)(=O)=O)CC1 [Example 118, Ethyl (1s*,4s*)-1-((4-chloro-5-(2-(difluoromethoxy)-4-(3,3,3-trifluoro-2,2-dimethylpropyl)phenyl)-1-ethyl-1H-pyrazole-3-carboxamido)methyl)-4-(methylsulfonyl)cyclohexane-1-carboxylate]	103
CCn1nc(C(=O)NC[C@H]2CC[C@H](S(C)(=O)=O)CC2)c(Cl)c1-c1ccc(OCC2CC2(F)F)cc1OC (some centres unmarked) [Example 209, 4-Chloro-5-(4-((2,2-difluorocyclopropyl)methoxy)-2-methoxyphenyl)-1-ethyl-N-(((1r,4r)-4-(methylsulfonyl)cyclohexyl)methyl)-1H-pyrazole-3-carboxamide]	82
CCn1nc(C(=O)NC[C@]2(O)CC[C@@H](S(C)(=O)=O)CC2)c(Cl)c1-c1ccc(CC(C)(C)C(F)(F)F)cc1OC [Example 45, 4-Chloro-1-ethyl-N-(((1s,4s)-1-hydroxy-4-(methylsulfonyl)cyclohexyl)methyl)-5-(2-methoxy-4-(3,3,3-trifluoro-2,2-dimethylpropyl)phenyl)-1H-pyrazole-3-carboxamide]	88
CCn1nc(C(=O)NC[C@H]2CC[C@H](S(C)(=O)=O)CC2)c(Cl)c1-c1ccc(OC[C@@H]2CC2(F)F)cc1OC (single isomer, unassigned) [Example 210, 4-Chloro-5-(4-(((S*)-2,2-difluorocyclopropyl)methoxy)-2-methoxyphenyl)-1-ethyl-N-(((1r,4R)-4-(methylsulfonyl)cyclohexyl)methyl)-1H-pyrazole-3-carboxamide]	77
[2H]C([2H])([2H])Oc1cc(CC(C)(C)C(F)(F)F)ccc1-c1c(Cl)c(C(=O)NC[C@]2(O)CC[C@@H](S(C)(=O)=O)CC2)nn1CC [Example 192, 4-Chloro-1-ethyl-N-(((1s,4s)-1-hydroxy-4-(methylsulfonyl)cyclohexyl)methyl)-5-(2-(methoxy-d3)-4-(3,3,3-trifluoro-2,2-dimethylpropyl)phenyl)-1H-pyrazole-3-carboxamide]	96
CCn1nc(C(=O)NC[C@]2(O)CC[C@@H](S(C)(=O)=O)CC2)c(Cl)c1-c1ccc(CCC(F)(F)F)cc1C(F)(F)F [Example 170, 4-Chloro-1-ethyl-N-(((1s,4s)-1-hydroxy-4-(methylsulfonyl)cyclohexyl)methyl)-5-(2-(trifluoromethyl)-4-(3,3,3-trifluoropropyl)phenyl)-1H-pyrazole-3-carboxamide]	5

Same assay, conditions: HEK-293T; 3 μM compound concentration (footnote *); read-out: RORγt (FL) Reporter Assay A or B, % inhibition

Structure (SMILES)	inhibition at 3 µM [%]
CCn1nc(C(=O)NC[C@]2(O)CC[C@@H](S(C)(=O)=O)CC2)c(Cl)c1-c1ccc([C@](C)(O)CCC(F)(F)F)cc1OC(F)F (relative stereo) [Example 103, 4-Chloro-5-(2-(difluoromethoxy)-4-((R*)-5-trifluoro-2-hydroxypentan-2-yl)phenyl)-1-ethyl-N-(((1s,4S)-1-hydroxy-4-(methylsulfonyl)cyclohexyl)methyl)-1H-pyrazole-3-carboxamide]	107
CCn1nc(C(=O)NC[C@]2(N)CC[C@H](S(C)(=O)=O)CC2)c(Cl)c1-c1ccc(CC(C)(C)C(F)(F)F)cc1OC(F)F [Example 20, N-(((1r*,4r*)-1-Amino-4-(methylsulfonyl)cyclohexyl)methyl)-4-chloro-5-(2-(difluoromethoxy)-4-(3,3,3-trifluoro-2,2-dimethylpropyl)phenyl)-1-ethyl-1H-pyrazole-3-carboxamide 2,2,2-trifluoroacetic Acid Salt]	15
CCn1nc(C(=O)NC[C@]2(O)CC[C@@H](S(C)(=O)=O)CC2)c(Cl)c1-c1ccc(C(C)(O)CCC(F)(F)F)cc1OC(F)F (some centres unmarked) [Example 101, 4-Chloro-5-(2-(difluoromethoxy)-4-(5,5,5-trifluoro-2-hydroxypentan-2-yl)phenyl)-1-ethyl-N-(((1s,4s)-1-hydroxy-4-(methylsulfonyl)cyclohexyl)methyl)-1H-pyrazole-3-carboxamide]	115
CCn1nc(C(=O)NC[C@]2(O)CC[C@@H](S(C)(=O)=O)CC2)c(Cl)c1-c1ccc([C@@H](O)C(C)(C)C(F)(F)F)cc1OC(F)F (single isomer, unassigned) [Example 108, 4-Chloro-5-(2-(difluoromethoxy)-4-((R*)-3,3,3-trifluoro-1-hydroxy-2,2-dimethylpropyl)phenyl)-1-ethyl-N-(((1s,4S)-1-hydroxy-4-(methylsulfonyl)cyclohexyl)methyl)-1H-pyrazole-3-carboxamide]	92
CCn1nc(C(=O)NC[C@]2(O)CC[C@@H](S(C)(=O)=O)CC2)c(Cl)c1-c1ccc([C@@](C)(O)CCC(F)(F)F)cc1OC(F)F (single isomer, unassigned) [Example 102, 4-Chloro-5-(2-(difluoromethoxy)-4-((S*)-5,5,5-trifluoro-2-hydroxypentan-2-yl)phenyl)-1-ethyl-N-(((1s,4R)-1-hydroxy-4-(methylsulfonyl)cyclohexyl)methyl)-1H-pyrazole-3-carboxamide]	85

Same assay, conditions: RORγt (FL) Reporter Assay A or B, IC50, HEK293T cells

Structure (SMILES)	IC50 [nM]
CCOC(=O)[C@]1(CNC(=O)c2nn(CC)c(-c3ccc(CC(C)(C)C(F)(F)F)cc3OC(F)F)c2Cl)CC[C@H](S(C)(=O)=O)CC1 [Example 118, Ethyl (1s*,4s*)-1-((4-chloro-5-(2-(difluoromethoxy)-4-(3,3,3-trifluoro-2,2-dimethylpropyl)phenyl)-1-ethyl-1H-pyrazole-3-carboxamido)methyl)-4-(methylsulfonyl)cyclohexane-1-carboxylate]	2.4
CCn1nc(C(=O)NC[C@]2(O)CC[C@@H](S(C)(=O)=O)CC2)c(Cl)c1-c1ccc(CCC(F)(F)F)cc1C(F)(F)F [Example 170, 4-Chloro-1-ethyl-N-(((1s,4s)-1-hydroxy-4-(methylsulfonyl)cyclohexyl)methyl)-5-(2-(trifluoromethyl)-4-(3,3,3-trifluoropropyl)phenyl)-1H-pyrazole-3-carboxamide]	> 2000
